# Patent US12129475B2, “Glycoalkaloid metabolism enyzymes (GAMES) and uses thereof” (priority 2017, dated 2024)
# Assays:
# tomato GAME25 [1] = test: In vitro assay of recombinant tomato GAME25 (Sf9 microsomes, NAD+); type: biochemical, Solanum lycopersicum; settings: 100 μM substrate, NAD+ 150 μM, pH 7.4, 37° C., 4 hrs; LC-MS
# Experimental: (§1) For enzyme assay experiments, an additional MS-MS analysis with a collision energy ramp from 20 to 50 eV was performed to identify the structures of the enzymatic reaction products. The solanid-4-en-3-one product was identified based on the comparison of its retention time and MS-MS spectrum to those measured for its corresponding standard. Another three products (tomatid-4-en-3-one, solasod-4-en-3-one and diosgen-4-en-3-one) were putatively assigned as follows: first, elemental composition based on accurate masses and the isotopic pattern was calculated using the MassLynx software. Then the MS-MS fragmentation pattern was analyzed, and the fragments were assigned applying the fragmentation rules for steroid-based compounds.
# (§2) Each expression vector construct was co-transfected with the ProGreen GFP linearized baculovirus DNA (AB vector) to generate the recombinant viruses in Spodoptera frugiperda (Sf9) insect cells. Infection efficiency was monitored by fluorescence of recombinant GFP viruses infected cells. Sf9 cells were grown in ESF921, protein free culture medium (Expression Systems). Three days post-infection cells were collected and washed twice in PBS. Microsomal fractions were isolated by suspending the cell pellet in 20 mM potassium phosphate buffer pH 7.25, 20% (v/v) glycerol, 1 mM EDTA and 1 mM DTT. The resuspended cells were sonicated, and the cell debris was removed by centrifugation at 10,000×g for 15 min. The supernatant was further centrifuged at 100,000×g for 60 min. The pellet containing the microsomal fractions was homogenized in lysis buffer. GAME25 was expressed with a myc-tag at the C-terminus. The isolated microsomal fractions were analyzed by SDS-PAGE and immune-blot with c-myc antibodies (A2S Technologies Ltd.).
# (§3) The steroidal alkaloid aglycones dehydrotomatidine, solanidine and solasodine as well as their glycosylated forms (i.e. SGAs) α-tomatine, α-solanine, α-chaconine and α-solamargine were used as substrates for GAME25 enzyme assays. In vitro assays for the tomato and potato recombinant GAME25 enzymes were performed as follows: Briefly, microsomal fractions of Sf9 cells expressing tomato or potato GAME25 proteins (0.2 mg total protein was used per reaction) were separately incubated in sodium phosphate buffer (pH 7.4) with 100 μM of each individual substrate (details are mentioned above), DTT (5 mM) and NAD^+ (150 μM) at 37° C. for 4 hrs. The reactions were stopped by addition of 300 μl of 80% methanol and 0.1% formic acid, followed by brief vortex and sonication for 15 min. Finally, the extracts were centrifuged for 15 min at 14,000×g, filtered through 0.22 μm filters, and analyzed by LC-MS (see Plant extracts preparation and targeted profiling of steroidal metabolites section above). Sf9 cells (without the baculovirus vector) microsomes were used in control enzyme reactions.
# potato GAME25 = test: In vitro assay of recombinant potato GAME25 (Sf9 microsomes, NAD+); type: biochemical, Solanum tuberosum; settings: 100 μM substrate, NAD+ 150 μM, pH 7.4, 37° C., 4 hrs; LC-MS
# Experimental: as §1, §2, §3
# plant cells = settings: cited from earlier work
# SlGAME31 = test: Enzymatic activity assay of recombinant SlGAME31 (hydroxylation of SA/SGAs); type: biochemical, Solanum lycopersicum
# Experimental: (§4) GAME31 was amplified from cDNA (SEQ ID NO: 17) and cloned into pET28 vector by restriction free (RF) cloning as described previously (Unger et al., 2010, J Struct Biol. 172:34-44).
# (§5) The resulting plasmids were verified by sequencing and transformed to E. coli BL21 DE3. For isolation of the GAME31-His tagged enzymes, fresh overnight cultures were diluted 1:100 in 1000 ml of LB medium (Formedium) with 50 μg/ml kanamycin and incubated at 37° C. and 250 rpm until an A600 nm of 0.5 was reached. Subsequently, for induction of expression of the recombinant proteins, IPTG was added to a final concentration of […] and the incubation was continued overnight at 16° C. and 250 rpm. Then cells were harvested by centrifugation at 10,000×g and bacteria were lysed by sonication in a buffer (pH 7.4) containing 0.02 M NaH2PO4 0.02 M, 0.5 M NaCl, and SIGMAFAST protease inhibitor tablets (Sigma-Aldrich) and benzonase nuclease (Sigma-Aldrich) according to manufacturer's instructions. Lysed cultures were centrifuged, and the soluble fraction was purified by nickel affinity chromatography which was operated with an AKTA liquid chromatography system (AKTA avant, GE Healthcare) according to the manufacturer's instructions. Proteins were stored at −80° C. until further analysis.
# All the SA/SGAs substrates were prepared at a concentration of 1 mg/ml, dissolved in methanol, except dehydrotomatine that was prepared in DMSO. The enzymatic activity was performed according to Kawai et al. (2014) Evolution and diversity of the 2-oxoglutarate-dependent dioxygenase superfamily in plants. Plant J. 78: 328-43. Briefly, the standard full reaction (100 μL) consisted of 10 mM L-ascorbic acid, 10 mM α-ketoglutaric acid, 500 μM FeSO4, 20 μM substrate, 50 mM potassium phosphate buffer (pH 7.5) and purified enzyme. All the components, except the enzyme, were pre-incubated for 10 min at 30° C., after which the reaction was started by addition of the enzyme. After incubation at 30° C. for 1 h, the reaction was stopped by freezing in liquid nitrogen Finally, the reaction was mixed with 300 μL methanol, extracted and analyzed by UPLC-qTOF-MS as described above.
# tomato GAME25 [2] = test: In vitro assay of purified recombinant tomato GAME25 expressed in E. coli; type: biochemical, Solanum lycopersicum; settings: purified enzyme (5 μg), NAD+ cofactor
# Experimental: as §1
# GAME25 and GAME35 genes were cloned into pET28 vector separately and expressed in E. coli BL21 (DE3). Bacterial cells were grown in LB medium at 37° C. When cultures reached A600=0.6, protein expression was induced with 200 μM of isopropyl-1-thio-β-d-galactopyranoside (IPTG) at 15° C. for 24 h. Bacterial cells were lysed by sonication in 50 mM Tris-HCl pH 7.5, 500 mM NaCl, 1 mM PMSF and protease inhibitor cocktail (Calbiochem). An aliquot of whole cell extract was kept for further analysis. […] The whole cell extract and the eluted fractions were analyzed by SDS-PAGE staining with InstatBlue and by Western blot with HRP conjugated anti-His antibodies (Sigma). […]
# GAME35 = GAME35 enzyme assay; type: biochemical, tomato; settings: 150 μM substrate, NADH or NADPH, 30° C., 3 hrs
# Experimental: GAME25 and GAME35 genes were cloned into pET28 vector separately and expressed in E. coli BL21 (DE3). Bacterial cells were grown in LB medium at 37° C. When cultures reached A600=0.6, protein expression was induced with 200 μM of isopropyl-1-thio-β-d-galactopyranoside (IPTG) at 15° C. for 24 h. Bacterial cells were lysed by sonication in 50 mM Tris-HCl pH 7.5, 500 mM NaCl, 1 mM PMSF and protease inhibitor cocktail (Calbiochem). An aliquot of whole cell extract was kept for further analysis. Soluble protein was purified using Ni-NTA agarose beads (Adar Biotech) and eluted with 500 mM imidazole in buffer containing 50 mM NaH2PO4 pH-7.5 and 300 mM NaCl. The whole cell extract and the eluted fractions were analyzed by SDS-PAGE staining with InstatBlue and by Western blot with HRP conjugated anti-His antibodies (Sigma).
# Purified GAME35 protein (5 μg) was incubated with solanid-4-en-3-one substrate (150 μM), DTT (1 mM), NADH or NADPH (500 μM) in sodium phosphate buffer (pH 7.4) at 30° C. for 3 hrs. The reactions were stopped by addition of 250 μl of 80% methanol and 0.1% formic acid, and followed by brief vortex and sonication for 15 min. Finally, the extracts were centrifuged for 10 min at 13,000×g and filtered through 0.22 μm filters, and analyzed by LC-MS, as described in the section above (plant extracts preparation and targeted profiling of steroidal metabolites). […]
# SmGAME31 = test: Enzymatic activity assay of recombinant SmGAME31 (hydroxylation of SA/SGAs); type: biochemical, Solanum melongena; settings: full reaction, 20 μM substrate, 30° C., 1 h
# Experimental: as §4
# as §5, with “Lysed cultures were centrifuged, and the soluble fraction was purified by nickel affinity chromatography which was operated with an AKTA liquid chromatography system (AKTA avant, GE Healthcare) according to the manufacturer's instructions. Proteins were stored at −80° C. until further analysis.” left out
# All the SA/SGAs substrates were prepared at a concentration of 1 mg/ml, dissolved in methanol, except dehydrotomatine that was prepared in DMSO. […] After incubation at 30° C. for 1 h, the reaction was stopped by freezing in liquid nitrogen Finally, the reaction was mixed with 300 μL methanol, extracted and analyzed by UPLC-qTOF-MS as described above.
# animals and humans = settings: studies in animal models; cited from earlier work
# [3] = full reaction: ketoglutaric acid, ascorbic acid, FeSO4, 20 μM substrate, 30° C., 1 h
Compound,activity with substrate / product formed (tomato GAME25 [1]),activity with substrate / product formed (potato GAME25),hydroxylation of substrate (SlGAME31; [3]),other results
CC(C)CCC[C@@H](C)[C@H]1CC[C@H]2[C@@H]3CC=C4C[C@@H](O)CC[C@]4(C)[C@H]3CC[C@]12C [cholesterol],not reactive,not reactive,–,–
C[C@H]1CC[C@]2(NC1)O[C@H]1C[C@H]3[C@@H]4CC=C5C[C@@H](O)CC[C@]5(C)[C@H]4CC[C@]3(C)[C@H]1[C@@H]2C [dehydrotomatidine],tomatid-4-en-3-one,tomatid-4-en-3-one,–,toxicity to plant cells (plant cells): highly toxic
C[C@H]1CC[C@]2(NC1)O[C@H]1C[C@H]3[C@@H]4CC=C5C[C@@H](O[C@@H]6O[C@H](CO)[C@H](O[C@@H]7O[C@H](CO)[C@@H](O)[C@H](O[C@@H]8OC[C@@H](O)[C@H](O)[C@H]8O)[C@H]7O[C@@H]7O[C@H](CO)[C@@H](O)[C@H](O)[C@H]7O)[C@H](O)[C@H]6O)CC[C@]5(C)[C@H]4CC[C@]3(C)[C@H]1[C@@H]2C [dehydrotomatine],no activity,no activity,did perform hydroxylation,–
C[C@@H]1CC[C@@]2(OC1)O[C@H]1C[C@H]3[C@@H]4CC=C5C[C@@H](O)CC[C@]5(C)[C@H]4CC[C@]3(C)[C@H]1[C@@H]2C [diosgenin],–,–,–,product formed from substrate (tomato GAME25 [2]): diosgen-4-en-3-one
C[C@H]1CC[C@@H]2[C@@H](C)C3C(CC4C5CCC6=CC(=O)CCC6(C)C5CCC43C)N2C1 (stereo partly shown) [solanid-4-en-3-one],–,–,–,activity with substrate (GAME35): did not react
C[C@H]1CC[C@@H]2[C@@H](C)[C@H]3[C@H](C[C@H]4[C@@H]5CC=C6C[C@@H](O)CC[C@]6(C)[C@H]5CC[C@]34C)N2C1 [solanidine],solanid-4-en-3-one,solanid-4-en-3-one,–,product formed from substrate (tomato GAME25 [2]): solanid-4-en-3-one
C[C@@H]1CC[C@@]2(NC1)O[C@H]1C[C@H]3[C@@H]4CC=C5C[C@@H](O)CC[C@]5(C)[C@H]4CC[C@]3(C)[C@H]1[C@@H]2C [solasodine],solasod-4-en-3-one,solasod-4-en-3-one,–,–
C[C@H]1CC[C@]2(NC1)O[C@H]1C[C@H]3[C@@H]4CC[C@H]5C[C@@H](O)CC[C@]5(C)[C@H]4CC[C@]3(C)[C@H]1[C@@H]2C [tomatidine],–,–,did not show activity,hydroxylation of substrate (SmGAME31): did not hydroxylate; toxicity to plant cells (plant cells): highly toxic
C[C@H]1CC[C@@H]2[C@@H](C)[C@H]3[C@H](C[C@H]4[C@@H]5CC=C6C[C@@H](O[C@@H]7O[C@H](CO)[C@H](O[C@@H]8O[C@@H](C)[C@H](O)[C@@H](O)[C@H]8O)[C@H](O)[C@@H]7O[C@@H]7O[C@@H](C)[C@@H](O)[C@@H](O)[C@H]7O)CC[C@]6(C)[C@H]5CC[C@]34C)N2C1 [α-chaconine],no activity,no activity,–,–
C[C@@H]1CC[C@@]2(NC1)O[C@H]1C[C@H]3[C@@H]4CC=C5C[C@@H](O[C@@H]6O[C@H](CO)[C@@H](O[C@@H]7O[C@@H](C)[C@H](O)[C@@H](O)[C@H]7O)[C@H](O)[C@H]6O[C@@H]6O[C@@H](C)[C@H](O)[C@@H](O)[C@H]6O)CC[C@]5(C)[C@H]4CC[C@]3(C)[C@H]1[C@@H]2C [α-solamargine],no activity,no activity,generating hydroxysolamargine,hydroxylation of substrate (SmGAME31): performed hydroxylation
C[C@H]1CC[C@@H]2[C@@H](C)[C@H]3[C@H](C[C@H]4[C@@H]5CC=C6C[C@@H](O[C@@H]7O[C@H](CO)[C@H](O)[C@H](O[C@@H]8O[C@H](CO)[C@@H](O)[C@H](O)[C@H]8O)[C@H]7O[C@@H]7O[C@@H](C)[C@H](O)[C@@H](O)[C@H]7O)CC[C@]6(C)[C@H]5CC[C@]34C)N2C1 [α-solanine],no activity,no activity,–,–
C[C@H]1CC[C@]2(NC1)O[C@H]1C[C@H]3[C@@H]4CC[C@H]5C[C@@H](O[C@@H]6O[C@H](CO)[C@H](O[C@@H]7O[C@H](CO)[C@@H](O)[C@H](O[C@@H]8OC[C@@H](O)[C@H](O)[C@H]8O)[C@H]7O[C@@H]7O[C@H](CO)[C@@H](O)[C@H](O)[C@H]7O)[C@H](O)[C@H]6O)CC[C@]5(C)[C@H]4CC[C@]3(C)[C@H]1[C@@H]2C [α-tomatine],no activity,no activity,forming hydroxytomatine,"hydroxylation of substrate (SlGAME31; absence of iron): minor amounts of hydroxytomatine were still generated; hydroxylation of substrate (SlGAME31; removal of either cofactor (ketoglutaric or ascorbic acid)): lack of activity; toxicity to animals and humans compared to SGAs possessing the C-5,6 double bond (e.g. α-chaconine and α-solanine) (animals and humans): much less toxic"
cholestenol,not reactive,not reactive,–,–
